Reference: article PMC12010006, “Subnanomolar MAS-related G protein-coupled receptor-X2/B2 antagonists with efficacy in human mast cells and disease models” (Signal Transduction and Targeted Therapy, 2025)

Tested on: LAD2 cells
Test: MTT assay, LAD2 cells
Assay type: cell-based, human
Conditions: 24 h; concentrations up to 6-fold higher than IC50 (3, 10, 30 nM)
Experimental: Fig. 6 PSB-172656 inhibits MRGPRX2-mediated mast cell degranulation. a LAD2 cells were incubated with buffer (control) or various concentrations of MRGPRX2 antagonist PSB-172656, subsequently exposed to substance P (SP, 0.3 µM), and β-hexosaminidase release was measured. […] Data are expressed as means ± SEM of 3 biological replicates. Statistical significance was determined by one-way ANOVA (Tukey’s multiple comparisons), compared to the effect of SP in the absence of PSB-172656 (P-value*** < 0.001). b Potential cytotoxicity of PSB-172656 was determined in 3-[4,5-dimethylthiazol-2-yl]-2,5-diphenyl tetrazolium bromide (MTT) assays performed on LAD2 cells. Cells were treated with different concentrations of PSB-172656 for 24 h at 37 °C, and the optic density value was determined at 570 nm (the viability of untreated cells corresponds to 100% cell viability). […] Mean fluorescence intensity (MFI) levels of e CD107a and f CD63 are depicted. […] Degranulation is characterized by the release of β-hexosaminidase, expressed as a percentage of the total content. h Human skin MCs were incubated with different concentrations of PSB-172656 for 30 min followed by stimulation with CST-14 (1 µM). Statistical significance was calculated by one-way ANOVA (Tukey’s multiple comparisons), compared to agonist without PSB-172656 (P-value* < 0.05, […], and P-value**** < 0.001) […]

`CCc1c(C(C)C)[nH]c2nc3cc(F)c(F)cc3n2c1=O` [Compound 24, 3-ethyl-7,8-difluoro-2-isopropylbenzo[4,5]imidazo [1,2-a] pyrimidin-4(1H)-one] was tested, and the “toxicity in LAD2 cells (MTT)” value was “did not exhibit toxicity”.
